Reference: patent US12071437B1, “Pyrazolo[1,5-a]pyrido[4,3-e]pyrimidine-2-carboxylic acids as CK2 inhibitors” (KING FAISAL UNIVERSITY, priority 2024, dated 2024)

Tests used:
[1] = system: HL60 (leukemia) cancer cells; assay: In vitro cytotoxic activity MTT assay, HL60; type: cell-based; conditions: Homo sapiens, HL-60, 96 hours exposure, 50% inhibition of cell proliferation, read-out: Cytotoxicity activity IC50, HL60 (leukemia)
Experimental: (§1) Compounds 1-16 were screened for their in vitro cytotoxic activity utilizing a 3-(4,5-dimethyl-thiazol-2-yl)-2,5-diphenyltetrazolium bromide (MTT) assay against selected cancer human cell lines consisting of PC3 (prostate), HCT116 (colon), A375 (melanoma), H1299 (lung), MIAPaCa-2 (pancreas), HL60 (leukemia), MCF7 (breast), MDA-MB-231 (breast) (T. Mosmann, J. Immunol. Meth., 1983, 65, 55-63). The cells were cultured at 37° C. in RMPI1640 medium supplemented with 10% fetal bovine serum, 50 IU/mL penicillin, and 50 μg/mL streptomycin in a 5% CO2 incubator. All cells were sub-cultured 3 times/week by trypsinisation. Viable cells were seeded and allowed to adhere for 12 hours before a test drug was added in 96-well plates at an initial density of 1.0×10^5 cells/mL. Tumor cell lines were separately exposed to various concentrations of the tested compounds followed by incubation at a temperature of 37° C. during 96 hours inside a medium of fresh RMPI1640. Cells were subsequently incubated at 37° ° C. using MTT at 0.5 mg/mL during 4 hours. After removal of supernatant, formazan crystals were dissolved in isopropanol and the optical density was measured at 570 nm. CX-4945 was used as a positive control.

[2] = system: MCF7 (breast) cancer cells; assay: In vitro cytotoxic activity MTT assay, MCF7; type: cell-based; conditions: Homo sapiens, 96 hours exposure, 50% inhibition of cell proliferation, read-out: Cytotoxicity activity IC50, MCF7 (breast)
Experimental: as §1

[3] = system: PC3 (prostate) cancer cells; assay: In vitro cytotoxic activity MTT assay, PC3; type: cell-based; conditions: Homo sapiens, PC-3, 96 hours exposure, 50% inhibition of cell proliferation, read-out: Cytotoxicity activity IC50, PC3 (prostate)
Experimental: as §1

[4] = system: HCT116 (colon) cancer cells; assay: In vitro cytotoxic activity MTT assay, HCT116; type: cell-based; conditions: Homo sapiens, HCT-116, 96 hours exposure, 50% inhibition of cell proliferation, read-out: Cytotoxicity activity IC50, HCT116 (colon)
Experimental: as §1

[5] = system: MIAPaCa-2 (pancreas) cancer cells; assay: In vitro cytotoxic activity MTT assay, MIAPaCa-2; type: cell-based; conditions: Homo sapiens, MIA PaCa-2; MIAPaCa-2 cells, 96 hours exposure, 50% inhibition of cell proliferation; read-out: Cytotoxicity activity IC50, MIAPaCa-2 (pancreas)
Experimental: as §1

[6] = system: A375 (melanoma) cancer cells; assay: In vitro cytotoxic activity MTT assay, A375; type: cell-based; conditions: Homo sapiens, A-375, 96 hours exposure, 50% inhibition of cell proliferation, read-out: Cytotoxicity activity IC50, A375 (melanoma)
Experimental: as §1

[7] = system: H1299 (lung) cancer cells; assay: In vitro cytotoxic activity MTT assay, H1299; type: cell-based; conditions: Homo sapiens, NCI-H1299, 96 hours exposure, 50% inhibition of cell proliferation, read-out: Cytotoxicity activity IC50, H1299 (lung)
Experimental: as §1

[8] = target: T1, recombinant human CK2 (RRββ-holoenzyme) (Homo sapiens, UniProt P68400); assay: CK2 Kinase Assay (33P-ATP, substrate peptide RRRDDDSDDD); type: biochemical; conditions: final ATP 15 μM, 10 min at 30° C., read-out: protein kinase CK2 inhibition IC50
T1 construct: purchased Millipore
T1 sequence (P68400 whole entry): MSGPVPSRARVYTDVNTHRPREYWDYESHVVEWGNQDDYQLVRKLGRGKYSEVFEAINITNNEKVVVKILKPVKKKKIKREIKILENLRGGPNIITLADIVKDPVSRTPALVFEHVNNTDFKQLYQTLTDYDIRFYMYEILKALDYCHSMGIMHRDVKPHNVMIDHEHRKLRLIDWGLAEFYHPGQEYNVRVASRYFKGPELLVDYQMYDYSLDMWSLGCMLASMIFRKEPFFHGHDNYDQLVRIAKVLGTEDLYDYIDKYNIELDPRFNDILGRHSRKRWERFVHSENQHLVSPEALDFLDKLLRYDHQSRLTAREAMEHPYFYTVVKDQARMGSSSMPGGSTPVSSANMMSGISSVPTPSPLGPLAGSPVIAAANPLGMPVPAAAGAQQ
T1 sequence (P67870 whole entry partner): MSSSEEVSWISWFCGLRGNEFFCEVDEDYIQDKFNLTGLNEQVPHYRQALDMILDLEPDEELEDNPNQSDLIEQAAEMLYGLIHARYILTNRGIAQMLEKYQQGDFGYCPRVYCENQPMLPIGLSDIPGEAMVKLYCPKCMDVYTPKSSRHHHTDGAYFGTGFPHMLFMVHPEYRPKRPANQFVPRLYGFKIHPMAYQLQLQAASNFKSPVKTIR
Experimental: CK2 Kinase Assay was conducted using the protocol as described in Pierre F. et al; J. Med. Chem. 2011, 54, 635-654. The tested compounds in aqueous solution were added at a volume of 10 μL to a reaction mixture comprising 10 μL of assay dilution buffer (ADB; 20 mM MOPS, pH 7.2, 25 mM β-glycerol phosphate, 5 mM EGTA, 1 mM sodium orthovanadate, and 1 mM dithiothreitol), 10 μL of substrate peptide (RRRDDDSDDD, dissolved in ADB at a concentration of 1 mM), 10 μL of recombinant human CK2 (RRββ-holoenzyme, 25 ng dissolved in ADB; Millipore). Reactions were initiated by the addition of 10 μL of ATP solution (90% 75 mMMgCl2, 75 μM ATP (final ATP concentration: 15 μM) dissolved in ADB; 10% [γ-33P] ATP (stock 1 mCi/100 μL; 3000 Ci/mmol (Perkin-Elmer) and maintained for 10 min at 30° C. The reactions were quenched with 100 μL of 0.75% phosphoric acid and then transferred to and filtered through a phosphor cellulose filter plate (Millipore). After washing each well five times with 0.75% phosphoric acid, the plate was dried under vacuum for 5 min and, following the addition of 15 μL of scintillation fluid to each well, the residual radioactivity was measured using a Wallac […]. The IC50 values were derived from eight concentrations of test inhibitors.

[9] = system: MDA-MB-231 (breast) cancer cells; assay: In vitro cytotoxic activity MTT assay, MDA-MB-231; type: cell-based; conditions: Homo sapiens; MDA-MB-231 cells, 96 hours exposure, 50% inhibition of cell proliferation; read-out: Cytotoxicity activity IC50, MDA-MB-231 (breast)
Experimental: as §1

IC50 [8]: 72 nM
SMILES: O=C(O)c1cc2nc(Nc3cccc(Cl)c3)c3ccncc3n2n1 [Compound 1, 5-((3-Chlorophenyl)Amino)Pyrazolo[1,5-a]Pyrido[4,3-e]Pyrimidine-2-Carboxylic Acid]
IC50 [1]: 3200 nM
IC50 [2]: 5400 nM
IC50 [3]: 1700 nM
IC50 [4]: 1600 nM
IC50 [5]: 1300 nM
IC50 [6]: 4500 nM
IC50 [7]: 1900 nM
IC50 [9]: 4800 nM
